Like-named read-outs stand apart in the source and are kept apart here.
Assays:
[1] = biological target: T1, human recombinant histamine H2 receptor (Homo sapiens, UniProt P25021); assay: Histamine H2 radioligand binding ([125I]Aminopotentidine)
T1 construct: expressed in transfected cells; host or cells: CHO-K1 cells
Summary of the method: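 This radioligand binding assay measured displacement of [125I]Aminopotentidine from recombinant human histamine H2 receptors. Compounds were dissolved in 1% DMSO vehicle. Specific binding was calculated by subtracting non-specific binding, defined using 3 μM Tiotidine, and activity was reported as percentage inhibition of that specific binding.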

[2] = biological target: T2, human recombinant adrenergic α1D receptor (Homo sapiens, UniProt P25100); assay: Adrenergic α1D radioligand binding ([3H]Prozosin); set-up: Inhibition of ligand binding, Adren. alpha1D: concentration or dose not given beside the values; settings: for Inhibition of ligand binding, Adren. alpha1D: percent inhibition of specific binding
T2 construct: expressed in transfected cells; host or cells: HEK-293 cells
T2 sequence (P25100 1-572): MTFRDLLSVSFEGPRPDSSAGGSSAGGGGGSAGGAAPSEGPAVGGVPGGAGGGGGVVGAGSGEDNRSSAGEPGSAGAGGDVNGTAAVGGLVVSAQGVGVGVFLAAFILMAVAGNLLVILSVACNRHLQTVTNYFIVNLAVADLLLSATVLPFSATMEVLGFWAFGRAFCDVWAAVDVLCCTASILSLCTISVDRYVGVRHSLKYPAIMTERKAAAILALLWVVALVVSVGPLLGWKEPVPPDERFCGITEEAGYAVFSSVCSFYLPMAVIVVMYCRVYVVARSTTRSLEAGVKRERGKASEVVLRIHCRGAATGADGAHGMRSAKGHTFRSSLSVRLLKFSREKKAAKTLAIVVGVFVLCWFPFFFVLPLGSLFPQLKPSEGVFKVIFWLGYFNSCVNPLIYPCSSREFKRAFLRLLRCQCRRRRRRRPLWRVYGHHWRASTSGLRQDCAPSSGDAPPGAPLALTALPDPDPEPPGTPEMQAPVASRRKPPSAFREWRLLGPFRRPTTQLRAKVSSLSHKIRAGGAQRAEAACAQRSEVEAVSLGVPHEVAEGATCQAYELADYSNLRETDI
Procedure: Compounds of invention were incubated with 0.6 nM [^3H]Prozosin for 60 minutes at 25° C. Non-specific binding was estimated in the presence of 10 μM phentolamine. Receptor proteins were filtered and washed, the filters were then counted to determine [^3H]Prozosin specifically bound. […] Biochemical assay results are presented as the percent inhibition of specific binding in Table 6.

[3] = biological target: T3, human recombinant adrenergic α2B receptor (Homo sapiens, UniProt P18089); assay: Adrenergic α2B radioligand binding ([3H]Rauwolscine); set-up: Inhibition of ligand binding, Adren. alpha2B: concentration or dose not given beside the values; settings: for Inhibition of ligand binding, Adren. alpha2B: percent inhibition of specific binding
T3 construct: expressed in transfected cells; host or cells: CHO-K1 cells
T3 sequence (P18089 1-450): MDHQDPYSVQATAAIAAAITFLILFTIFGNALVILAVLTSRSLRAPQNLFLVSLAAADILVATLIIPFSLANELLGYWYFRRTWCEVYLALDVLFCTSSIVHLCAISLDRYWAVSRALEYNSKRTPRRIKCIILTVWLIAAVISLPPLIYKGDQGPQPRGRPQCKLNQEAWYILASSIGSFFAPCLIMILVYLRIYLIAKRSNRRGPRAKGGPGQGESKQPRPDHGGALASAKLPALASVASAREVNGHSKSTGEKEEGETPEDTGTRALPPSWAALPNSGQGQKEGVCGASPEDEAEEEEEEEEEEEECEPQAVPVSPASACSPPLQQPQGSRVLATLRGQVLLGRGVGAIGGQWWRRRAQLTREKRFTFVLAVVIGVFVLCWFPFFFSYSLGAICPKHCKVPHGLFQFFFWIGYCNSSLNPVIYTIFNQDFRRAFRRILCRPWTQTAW
Summary of the method: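 Incubation ran 60 minutes at 25 °C in modified Tris-HCl buffer (50 mM, pH 7.4, 12.5 mM MgCl2, 1 mM EDTA, 0.2% BSA) using CHO-K1-expressed human receptor.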

[4] = biological target: T4, human recombinant dopamine D2L receptor (Homo sapiens, UniProt P14416); assay: Dopamine D2L radioligand binding ([3H]Spiperone); settings: for Inhibition of ligand binding, Dop. D2L: percent inhibition of specific binding
T4 construct: expressed in transfected cells; host or cells: CHO cells
T4 sequence (P14416 whole entry): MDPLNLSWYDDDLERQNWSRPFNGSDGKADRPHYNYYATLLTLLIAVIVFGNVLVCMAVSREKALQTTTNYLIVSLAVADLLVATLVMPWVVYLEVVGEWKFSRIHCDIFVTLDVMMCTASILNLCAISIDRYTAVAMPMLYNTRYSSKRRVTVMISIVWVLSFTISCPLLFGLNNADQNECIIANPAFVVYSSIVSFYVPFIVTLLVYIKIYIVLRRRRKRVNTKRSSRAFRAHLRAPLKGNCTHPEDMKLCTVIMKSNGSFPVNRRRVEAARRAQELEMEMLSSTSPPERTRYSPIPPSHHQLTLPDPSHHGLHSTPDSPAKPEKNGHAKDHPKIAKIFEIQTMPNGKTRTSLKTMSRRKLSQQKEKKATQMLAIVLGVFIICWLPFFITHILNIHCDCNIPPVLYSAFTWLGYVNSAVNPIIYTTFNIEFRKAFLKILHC
Procedure: Non-specific binding was estimated in the presence of 10 μM Haloperidol. Receptor proteins were filtered and washed, the filters were then counted to determine [^3H]Spiperone specifically bound. […] Biochemical assay results are presented as the percent inhibition of specific binding in Table 6.

[5] = biological target: T5, human recombinant serotonin (5-Hydroxytryptamine) 5-HT2A receptor (Homo sapiens, UniProt P28223); assay: Serotonin 5-HT2A radioligand binding ([3H]Ketanserin); settings: for Inhibition of ligand binding, Ser. 5-HT2A: percent inhibition of specific binding
T5 construct: expressed in transfected cells; host or cells: CHO-K1 cells
T5 sequence (P28223 whole entry): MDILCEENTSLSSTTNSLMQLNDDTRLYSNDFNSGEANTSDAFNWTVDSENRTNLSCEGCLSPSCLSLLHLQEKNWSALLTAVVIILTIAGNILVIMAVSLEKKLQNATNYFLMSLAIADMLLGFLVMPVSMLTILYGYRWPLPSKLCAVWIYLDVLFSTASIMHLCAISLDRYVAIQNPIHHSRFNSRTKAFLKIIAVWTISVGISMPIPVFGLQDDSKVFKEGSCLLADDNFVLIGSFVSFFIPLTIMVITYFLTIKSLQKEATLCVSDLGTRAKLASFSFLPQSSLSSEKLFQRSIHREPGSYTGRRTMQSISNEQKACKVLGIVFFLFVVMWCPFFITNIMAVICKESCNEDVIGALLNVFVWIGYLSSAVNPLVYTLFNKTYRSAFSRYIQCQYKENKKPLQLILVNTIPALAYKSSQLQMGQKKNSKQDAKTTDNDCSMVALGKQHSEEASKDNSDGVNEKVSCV
Procedure: Compounds of the invention were incubated with 0.5 nM [^3H]Ketanserin for 60 minutes at 25° C. Non-specific binding was estimated in the presence of 1 μM Mianserin. Receptor proteins were filtered and washed, the filters were then counted to determine [^3H]Ketanserin specifically bound. […] Biochemical assay results are presented as the percent inhibition of specific binding in Table 6.

[6] = biological target: T6, human recombinant serotonin (5-Hydroxytryptamine) 5-HT2C receptor (Homo sapiens, UniProt P28335); assay: Serotonin 5-HT2C radioligand binding ([3H]Mesulergine); set-up: Inhibition of ligand binding, Ser. 5-HT2C: concentration or dose not given beside the values; settings: for Inhibition of ligand binding, Ser. 5-HT2C: percent inhibition of specific binding
T6 construct: expressed in transfected cells; host or cells: CHO-K1 cells
T6 sequence (P28335 33-458): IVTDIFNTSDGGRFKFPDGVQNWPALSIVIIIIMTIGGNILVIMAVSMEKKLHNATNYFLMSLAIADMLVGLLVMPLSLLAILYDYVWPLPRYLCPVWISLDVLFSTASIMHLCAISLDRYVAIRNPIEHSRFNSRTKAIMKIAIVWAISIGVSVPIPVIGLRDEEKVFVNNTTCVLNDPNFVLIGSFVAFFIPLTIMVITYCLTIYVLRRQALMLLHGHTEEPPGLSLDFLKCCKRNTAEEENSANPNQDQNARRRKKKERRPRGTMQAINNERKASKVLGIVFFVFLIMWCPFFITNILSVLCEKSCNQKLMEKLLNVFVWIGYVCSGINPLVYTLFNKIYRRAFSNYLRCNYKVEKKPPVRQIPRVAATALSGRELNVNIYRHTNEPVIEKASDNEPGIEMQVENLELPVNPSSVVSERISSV
Procedure: Compounds of the invention were incubated with 1 nM [^3H]Mesulergine for 60 minutes at 25° C. Non-specific binding was estimated in the presence of 1 μM Mianserin. Receptor proteins were filtered and washed, the filters were then counted to determine [^3H]Mesulergine specifically bound. […] Biochemical assay results are presented as the percent inhibition of specific binding in Table 6.

[7] = 1 μM compound, 0.1 nM [125I]Aminopotentidine, read-out: Histamine Binding H2, percent inhibition of specific binding
[8] = percent inhibition of specific binding, screened at 1 μM, read-out: Inhibition of ligand binding, Hist. H2

T1 sequence (P25021 whole entry): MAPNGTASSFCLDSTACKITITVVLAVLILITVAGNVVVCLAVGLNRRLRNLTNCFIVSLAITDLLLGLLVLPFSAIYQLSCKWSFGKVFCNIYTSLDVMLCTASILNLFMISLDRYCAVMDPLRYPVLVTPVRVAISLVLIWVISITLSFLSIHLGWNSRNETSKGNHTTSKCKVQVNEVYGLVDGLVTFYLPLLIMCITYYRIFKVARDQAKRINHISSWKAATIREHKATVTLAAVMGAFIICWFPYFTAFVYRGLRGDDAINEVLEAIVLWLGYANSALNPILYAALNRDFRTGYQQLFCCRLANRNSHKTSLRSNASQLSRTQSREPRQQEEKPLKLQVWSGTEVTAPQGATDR

SMILES	inhibition at 1 µM [1, 7]	inhibition at 1 µM [1, 8]	Inhibition of ligand binding, Adren. alpha1D [2]	Inhibition of ligand binding, Adren. alpha2B [3]	Inhibition of ligand binding, Dop. D2L [4]	Inhibition of ligand binding, Ser. 5-HT2A [5]	Inhibition of ligand binding, Ser. 5-HT2C [6]	inhibition at 1 µM ([1]; compounds screened at 1 μM, read-out: Inhibition of ligand binding, Hist. H2 (percent inhibition of specific binding))	inhibition at 1 µM ([2]; compounds screened at 1 μM, read-out: Inhibition of ligand binding, Adren. alpha1D (percent inhibition of specific binding))	inhibition at 1 µM ([3]; compounds screened at 1 μM, read-out: Inhibition of ligand binding, Adren. alpha2B (percent inhibition of specific binding))	inhibition at 1 µM ([4]; compounds screened at 1 μM, read-out: Inhibition of ligand binding, Dop. D2L (percent inhibition of specific binding))	inhibition at 1 µM ([5]; read-out: Inhibition of ligand binding, Ser. 5-HT2A (percent inhibition of specific binding))	inhibition at 1 µM ([6]; compounds screened at 1 μM, read-out: Inhibition of ligand binding, Ser. 5-HT2C (percent inhibition of specific binding))	inhibition at 0.3 µM ([1]; 0.3 μM compound, 0.1 nM [125I]Aminopotentidine, read-out: Histamine Binding H2, percent inhibition of specific binding)
CCOC(=O)N1CCc2c(c3cc(-c4cccnc4)ccc3n2CCc2ccc(C)nc2)C1 [Compound 19, ethyl 3,4-dihydro-5-(2-(6-methylpyridin-3-yl)ethyl)-8-(pyridin-3-yl)-1H-pyrido[4,3-b]indole-2(5H)-carboxylate]	10%	10%	−6%	−8%	−5%	2%	−17%							
Cc1ccc2c(c1)c1c(n2CCCc2ccc(C(F)(F)F)nc2)CCN(C)C1 [Compound 331, 5-(3-(6-(trifluoromethyl)pyridin-3-yl)propyl)-2,3,4,5-tetrahydro-2,8-dimethyl-1H-pyrido[4,3-b]indole]		73%	63%	105%	20%	93%	72%							
CN1CCc2c(c3cc(Cl)ccc3n2CCC(=O)N2CCOCC2)C1 [Compound 328, 3-(8-chloro-1,2,3,4-tetrahydro-2-methylpyrido[4,3-b]indol-5-yl)-1-morpholinopropan-1-one]		4%	23%	21%	6%	46%	29%							
CCOC(=O)N1CCc2c(c3cc(Br)ccc3n2CCc2ccc(C)nc2)C1 [Compound 18, ethyl 8-bromo-3,4-dihydro-5-(2-(6-methylpyridin-3-yl)ethyl)-1H-pyrido[4,3-b]indole-2(5H)-carboxylate]	1%	1%	−10%	−8%	−7%	5%	−14%							
Cc1ccc2c(c1)c1c(n2CCc2cnc(C)cn2)CCN(C)C1 [Compound 322, 2,8-dimethyl-5-(2-(5-methylpyrazin-2-yl)ethyl)-2,3,4,5-tetrahydro-1H-pyrido[4,3-b]indole]		20%	66%	115%	5%	64%	69%							
Cc1ccc2c(c1)c1c(n2CCc2noc(-c3ccccc3)n2)CCN(C)C1 [Compound C4-4]								68%	92%	102%	46%	100%	98%	
Cc1ccc2c(c1)c1c(n2CCc2ccncc2)CCN(C)C1 [Compound 22, 2,3,4,5-tetrahydro-2,8-dimethyl-5-(2-(pyridin-4-yl)ethyl)-1H-pyrido[4,3-b]indole]	49%	53%	83%	105%	27%	81%	87%							29%
CCOC(=O)N1CCc2c(c3cc(C)ccc3n2CCc2ccccc2)C1 [Compound 24, ethyl 3,4-dihydro-8-methyl-5-phenethyl-1H-pyrido[4,3-b]indole-2(5H)-carboxylate]	13%	13%	6%	−1%	3%	−2%	1%							
Cc1ccc2c(c1)c1c(n2CC(=O)N2CCOCC2)CCN(C)C1 [Compound 330, 2-(1,2,3,4-tetrahydro-2,8-dimethylpyrido[4,3-b]indol-5-yl)-1-morpholinoethanone]		6%	8%	6%	−8%	14%	17%							

Source: patent US9096591B2, “Tetracyclic compounds” (Medivation Technologies, Inc., priority 2007, dated 2015)
